pEC50, pIC50: −log10 of the molar value.
Assays:
Pim-2 = target: T1, Pim-2 (Homo sapiens, UniProt Q9P1W9); test: TR-FRET assay of Pim kinase activity (phosphorylation of Bad Ser112), Pim-2; type: biochemical; details: ATP 40 μM, read-out: IC50 Pim2
T1 construct: full-length human recombinant His6-labelled Pim-1, Pim-2 or Pim-3 protein; His6; made in house
How it was run: (§1)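 Full-length His6-tagged human Pim-1, -2 or -3 phosphorylate full-length His6-Bad at 40 μM ATP; phospho-Ser112 detected by TR-FRET (Eu anti-phosphoBad, APC anti-His6), 665/615 nm ratio. Compounds run at 10 concentrations in duplicate, typically top 30 μM; IC50 from 4-parameter logistic fit.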

MOLM-13 = test: Cell viability assay (CellTiter-Blue), MOLM-13; type: cell-based; details: Homo sapiens, read-out: EC50 MOLM-13 μM, MOLM-13 cells, read-out: EC50 MOLM-13 μM (myeloma)
Protocol: (§2) The representative compounds of the invention are also screened as regards their effects on cell proliferation and viability, using a variety of tumoral cell lines of human source, representative of different pathological indications. These cell lines include:
(§3) In order to measure the viability, the tumour cells are incubated in 96-well or 384-well format for 48, 72 or 96 hours, preferably 72 hours, with a compound of the invention at dilutions of a factor 3, with, in general, nine doses in total, the highest dose being equal to 10 μM or 30 μM. The cell viability is evaluated by adding CellTiter-Blue® (Promega, Madison, Wis., United States) for 4 hours and endpoint readings are taken using a SpectraMax Genmini EM plate reader (Molecular Devices, Sunnyvale, Calif., United States). The CellTiter-Blue® cell viability assay measures the ability of the cells in culture to reduce resazurin to resorufin, the intensity of the fluorescence signal being directly proportional to the number of live cells. The EC50 represents the concentration of compound that leads to a 50% reduction of the viability/proliferative expansion of the cells.

EOL-1 = test: Cell viability assay (CellTiter-Blue), EOL-1; type: cell-based; details: Homo sapiens, EOL1, read-out: EC50 EOL-1 μM (eosinophilic leukaemia), EOL-1 cells, read-out: EC50 EOL-1 μM (lymphoma);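 further: EOL-1 is an acute myeloid eosinophilic leukaemia line not a lymphoma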
From the text: as §2
Models of Haematological Cancers: • TF-1 (acute myelogenic leukaemia; AML M6 at the time of diagnosis); • K G-1 (AML; erythroleukaemia evolving into AML); • KG-1a (AML; subclone derived from immature KG-1); • EOL-1 (AML: eosinophilic leukaemia); • PL-21 (AML; M3); • ML-2 (AML; T-NHL evolving into T-ALL evolving into AML M4); • HL-60 (AML, M3); • Kasumi-1 (AML); • GDM-1 (AML); • K-562 (CML—chronic myelogenic leukaemia; blastic crisis); • JURL-MK1 (CML; blastic crisis); • DND-41 (T-ALL—T-cell acute lymphoblastic leukaemia); • Jurkat (T-ALL); NALM-6 (B-ALL B-cell ALL); • CEM (ALL; lymphosarcoma evolving into ALL); • Jeko-1 (B-NHL—B-cell non-Hodgkin lymphoma; lymphoma with coat cells derived from a large-cell variant in leukaemic transformation); • WSU-DLCL2 (B-NHL; diffuse lymphoma with large B cells); • RL (B-NHL; undifferentiated diffuse); • OCl-Ly10 (B-NHL); • DoHH-2 (B-NHL); • RPMI-8226 (MM—multiple myelomas); • JVM-2 (B-CLL—B-cell chronic lymphocytic leukaemia); and • JVM-3 (B-CLL).
as §3

Pim-1 = target: T2, Pim-1 (Homo sapiens, UniProt P11309); test: TR-FRET assay of Pim kinase activity (phosphorylation of Bad Ser112), Pim-1; type: biochemical; details: ATP 40 μM, read-out: IC50 Pim1
T2 construct: full-length human recombinant His6-labelled Pim-1, Pim-2 or Pim-3 protein; His6; made in house
How it was run: as §1

PLK1 = PLK1 (Homo sapiens, UniProt P53350); test: Biochemical results, IC50 PLK1
MV4-11 = test: Cell viability assay (CellTiter-Blue), MV4-11; type: cell-based; details: Homo sapiens, read-out: EC50 MV4-11 μM (acute myeloid leukemia), MV4-11 cells, read-out: EC50 MV4-11 μM (myeloma)
Protocol: as §2, §3

Pim-3 = target: T3, Pim-3 (Homo sapiens, UniProt Q86V86); test: TR-FRET assay of Pim kinase activity (phosphorylation of Bad Ser112), Pim-3; type: biochemical; details: ATP 40 μM, read-out: IC50 Pim3
T3 construct: full-length human recombinant His6-labelled Pim-1, Pim-2 or Pim-3 protein; His6; made in house
How it was run: as §1

CDK1 = CDK1 (Homo sapiens, UniProt P06493); test: Biochemical results, IC50 CDK1
phosphoBAD (JEKO) = test: Level of phosphorylation of Bad by ELISA, JEKO cell line; type: cell-based; details: Homo sapiens, JEKO cells, 3 hours at 37° C.
Protocol: (§4) The activity of the molecules is evaluated on the JEKO or DND-41 cell line by measuring the level of phosphorylation of Bad and the total Bad content, via the ELISA technique.
(§5) The JEKO or DND-41 cells are resuspended at a concentration of 500 000 cells per ml. The cells are then diluted in RPMI-1640 medium containing 20% foetal calf serum. 225 μl of cells are placed in a plate. Serial dilutions of the molecules are then performed (8 points, three-fold dilution, range started at 10 mM). Each dilution point is then diluted to 1/100 in medium. Next, 25 μl of each of the concentrations are added to the cells and then incubated for 3 hours at 37° C.
(§6) 100 μl of the cells are transferred into a plate treated with poly-D-Lysine. The plate is then incubated for 5-10 minutes at 37° C. and then centrifuged for 5 minutes at 1500 rpm. A volume of 100 μl of 8% fixing solution (solution of formaldehyde in PBS buffer) is added to each of the wells. After covering with a self-adhesive film and a lid, the plate is incubated for 20 minutes at room temperature and then stored at 4° C. overnight.
(§7) Next, the liquid is removed and two successive washes are performed with washing buffer. 100 μl of quenching buffer are added, followed by incubating for 15 minutes at room temperature. After washing, 100 μl of […] at room temperature. After washing, 50 μl of primary antibody diluted to 1/250 for pBAD (Cell Signaling Cat#5284) and to 1/500 for Bad (MBL Cat#591) are added to each of the plates. Each plate is incubated for 2 hours at room temperature. After two washes, 50 μl of secondary antibody (diluted to 1/16) are added to the pBAD plate (tebu-bio ref; FE-021) and 50 μl of the HRP-conjugated IgG secondary antibody (Santa Cruz Cat #SC-2004; diluted to 1/1000) are added to the Bad plate. Incubation for 1 hour at room temperature is performed. Four washes with the washing solution are performed, followed by three washes with PBS. Finally, 100 μl of the developing solution are added, followed by incubation for 10 minutes. Finally, 100 μl of the quenching solution are added, before reading at 450 nm.

phosphoBAD (DND-41) = test: Level of phosphorylation of Bad by ELISA, DND-41 cell line; type: cell-based; details: Homo sapiens, DND41, DND-41 cells, 3 hours at 37° C.
Protocol: as §4, §5, §6, §7

T2 sequence (P11309 whole entry): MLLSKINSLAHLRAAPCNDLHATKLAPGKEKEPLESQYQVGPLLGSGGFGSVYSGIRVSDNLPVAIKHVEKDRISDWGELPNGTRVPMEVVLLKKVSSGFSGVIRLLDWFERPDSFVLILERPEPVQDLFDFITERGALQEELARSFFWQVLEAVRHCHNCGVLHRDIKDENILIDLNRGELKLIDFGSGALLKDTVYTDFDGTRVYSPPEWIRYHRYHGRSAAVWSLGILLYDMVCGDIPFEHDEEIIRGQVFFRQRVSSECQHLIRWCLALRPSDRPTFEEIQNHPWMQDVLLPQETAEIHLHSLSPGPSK
PLK1, sequence (P53350 whole entry, species assumed): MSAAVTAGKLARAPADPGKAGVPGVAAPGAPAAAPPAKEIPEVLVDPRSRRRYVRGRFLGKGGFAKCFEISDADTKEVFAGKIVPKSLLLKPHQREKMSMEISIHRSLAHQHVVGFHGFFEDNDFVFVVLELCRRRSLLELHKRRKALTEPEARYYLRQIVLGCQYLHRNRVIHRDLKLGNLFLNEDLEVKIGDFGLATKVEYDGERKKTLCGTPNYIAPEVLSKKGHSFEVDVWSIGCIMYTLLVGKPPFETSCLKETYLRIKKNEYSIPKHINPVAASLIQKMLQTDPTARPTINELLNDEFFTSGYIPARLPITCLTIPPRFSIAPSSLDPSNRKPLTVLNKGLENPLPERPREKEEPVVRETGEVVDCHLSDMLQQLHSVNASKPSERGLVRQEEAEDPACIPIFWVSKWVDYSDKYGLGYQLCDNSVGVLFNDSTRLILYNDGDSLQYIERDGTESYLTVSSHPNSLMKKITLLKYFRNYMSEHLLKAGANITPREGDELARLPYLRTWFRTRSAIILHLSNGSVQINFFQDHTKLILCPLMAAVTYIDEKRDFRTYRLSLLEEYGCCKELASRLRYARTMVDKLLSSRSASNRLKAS
CDK1, sequence (P06493 whole entry, species assumed): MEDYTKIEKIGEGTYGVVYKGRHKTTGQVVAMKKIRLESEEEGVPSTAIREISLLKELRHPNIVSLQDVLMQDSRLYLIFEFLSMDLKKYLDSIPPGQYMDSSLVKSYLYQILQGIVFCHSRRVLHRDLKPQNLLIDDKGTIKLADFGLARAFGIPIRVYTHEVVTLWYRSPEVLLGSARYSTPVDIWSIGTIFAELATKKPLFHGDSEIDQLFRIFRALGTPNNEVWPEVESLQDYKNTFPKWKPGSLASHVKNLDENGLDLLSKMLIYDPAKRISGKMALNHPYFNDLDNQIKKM
CDK1, sequence (P14635 whole entry partner, species assumed): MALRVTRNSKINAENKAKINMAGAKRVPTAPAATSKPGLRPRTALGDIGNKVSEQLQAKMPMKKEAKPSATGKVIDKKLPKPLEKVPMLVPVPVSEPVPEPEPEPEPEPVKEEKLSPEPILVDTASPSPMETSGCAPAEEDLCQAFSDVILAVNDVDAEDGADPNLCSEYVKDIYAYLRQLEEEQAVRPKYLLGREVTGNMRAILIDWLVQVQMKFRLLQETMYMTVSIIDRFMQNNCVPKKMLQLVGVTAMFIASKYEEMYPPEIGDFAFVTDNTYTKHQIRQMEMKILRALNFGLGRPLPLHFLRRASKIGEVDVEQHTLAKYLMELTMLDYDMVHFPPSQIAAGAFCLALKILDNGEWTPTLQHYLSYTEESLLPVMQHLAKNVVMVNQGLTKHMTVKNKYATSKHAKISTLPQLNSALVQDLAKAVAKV
T1 sequence (Q9P1W9 whole entry): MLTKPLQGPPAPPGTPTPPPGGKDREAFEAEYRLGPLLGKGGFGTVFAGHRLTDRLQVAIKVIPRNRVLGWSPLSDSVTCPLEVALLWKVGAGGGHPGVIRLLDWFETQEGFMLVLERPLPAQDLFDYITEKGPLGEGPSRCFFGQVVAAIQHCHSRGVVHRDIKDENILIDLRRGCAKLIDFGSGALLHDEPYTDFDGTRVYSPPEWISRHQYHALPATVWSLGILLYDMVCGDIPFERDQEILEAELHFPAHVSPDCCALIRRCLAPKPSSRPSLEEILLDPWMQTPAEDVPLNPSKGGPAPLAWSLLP

Row | SMILES | pIC50 (Pim-2) | pEC50 (MOLM-13) | pEC50 (EOL-1) | pIC50 (Pim-1) | pIC50 (PLK1) | pEC50 (MV4-11) | pIC50 (Pim-3) | pIC50 (CDK1) | pIC50 (phosphoBAD (JEKO)) | pIC50 (phosphoBAD (DND-41))
1 | CN1CCN(NC(=O)c2ccc(-c3c(F)cnc4[nH]c5cnc(-c6cccnc6)cc5c34)cc2)CC1 [Example 7, 4-[3-fluoro-6-(pyridin-3-yl)-9H-pyrrolo[2,3-b:5,4-c′]dipyridin-4-yl]-N-(4-methylpiperazin-1-yl)benzamide] | 6.00 to 7.00 | 6.00 to 7.00 | > 7.00 | > 7.00 | 6.00 to 7.00 | 6.00 to 7.00 | > 7.00 | 5.30 to 6.00 |  | 
2 | CN(C)CCCNC(=O)c1ccc(-c2c(F)cnc3[nH]c4cnc(-c5cccnc5)cc4c23)cc1 [Example 10, N-[3-(dimethylamino)propyl]-4-[3-fluoro-6-(pyridin-3-yl)-9H-pyrrolo[2,3-b:5,4-c′]dipyridin-4-yl]benzamide] | 6.00 to 7.00 | 6.00 to 7.00 | 6.00 to 7.00 | > 7.00 | 5.30 to 6.00 | 6.00 to 7.00 | > 7.00 | 5.30 to 6.00 |  | 
3 | O=C(NC1CC1)c1ccc(-c2c(F)cnc3[nH]c4cnc(-c5cccnc5)cc4c23)cc1 [Example 11, N-cyclopropyl-4-[3-fluoro-6-(pyridin-3-yl)-9H-pyrrolo[2,3-b:5,4-c′]dipyridin-4-yl]benzamide] | 5.30 to 6.00 |  |  | > 7.00 |  |  | 6.00 to 7.00 |  | 6.00 to 7.00 | 
4 | CN(C)CCNC(=O)c1cccc(-c2c(F)cnc3[nH]c4cnc(-c5cccnc5)cc4c23)c1 [Example 12, N-[2-(dimethylamino)ethyl]-3-[3-fluoro-6-(pyridin-3-yl)-9H-pyrrolo[2,3-b:5,4-c′]dipyridin-4-yl]benzamide] | 5.30 to 6.00 | 6.00 to 7.00 | 6.00 to 7.00 | > 7.00 | 5.30 to 6.00 | 5.30 to 6.00 | > 7.00 | 5.30 to 6.00 |  | 
5 | O=C(NCCCN1CCCC1)c1ccc(-c2c(F)cnc3[nH]c4cnc(-c5cccnc5)cc4c23)cc1 [Example 20, 4-[3-fluoro-6-(pyridin-3-yl)-9H-pyrrolo[2,3-b:5,4-c′]dipyridin-4-yl]-N-[3-(pyrrolidin-1-yl)propyl]benzamide] | 6.00 to 7.00 | 6.00 to 7.00 | 6.00 to 7.00 | > 7.00 | 6.00 to 7.00 |  | > 7.00 | 6.00 to 7.00 |  | 
6 | O=C(NCCN1CCOCC1)c1ccc(-c2c(F)cnc3[nH]c4cnc(-c5cccnc5)cc4c23)cc1 [Example 21, 4-[3-fluoro-6-(pyridin-3-yl)-9H-pyrrolo[2,3-b:5,4-c′]dipyridin-4-yl]-N-[2-(morpholin-4-yl)ethyl]benzamide] | 5.30 to 6.00 | 6.00 to 7.00 | 6.00 to 7.00 | > 7.00 | 5.30 to 6.00 | 6.00 to 7.00 | > 7.00 | 6.00 to 7.00 |  | 
7 | CN1CCC(NC(=O)c2ccc(-c3c(F)cnc4[nH]c5cnc(-c6cccnc6)cc5c34)cc2)CC1 [Example 22, 4-[3-fluoro-6-(pyridin-3-yl)-9H-pyrrolo[2,3-b:5,4-c′]dipyridin-4-yl]-N-(1-methylpiperidin-4-yl)benzamide] | 6.00 to 7.00 |  | 6.00 to 7.00 | > 7.00 | 5.30 to 6.00 | 6.00 to 7.00 | > 7.00 | 5.30 to 6.00 | 5.30 to 6.00 | 
8 | CN(C)CCN(C)C(=O)c1ccc(-c2c(F)cnc3[nH]c4cnc(-c5cccnc5)cc4c23)cc1 [Example 23, N-[2-(dimethylamino)ethyl]-4-[3-fluoro-6-(pyridin-3-yl)-9H-pyrrolo[2,3-b:5,4-c′]dipyridin-4-yl]-N-methylbenzamide] | > 7.00 |  |  | > 7.00 | 6.00 to 7.00 |  | > 7.00 | 5.30 to 6.00 | 6.00 to 7.00 | 6.00 to 7.00
9 | CN1CCN(CCNC(=O)c2ccc(-c3c(F)cnc4[nH]c5cnc(-c6cccnc6)cc5c34)cc2)CC1 [Example 24, 4-[3-fluoro-6-(pyridin-3-yl)-9H-pyrrolo[2,3-b:5,4-c′]dipyridin-4-yl]-N-[2-(4-methylpiperazin-1-yl)ethyl]benzamide] | 5.30 to 6.00 |  | 6.00 to 7.00 | > 7.00 | 5.30 to 6.00 | 6.00 to 7.00 | > 7.00 | 5.30 to 6.00 | 6.00 to 7.00 | 5.30 to 6.00
10 | CN1CCC(CNC(=O)c2ccc(-c3c(F)cnc4[nH]c5cnc(-c6cccnc6)cc5c34)cc2)CC1 [Example 25, 4-[3-fluoro-6-(pyridin-3-yl)-9H-pyrrolo[2,3-b:5,4-c′]dipyridin-4-yl]-N-[(1-methylpiperidin-4-yl)methyl]benzamide] | 5.30 to 6.00 |  | 6.00 to 7.00 | > 7.00 | 5.30 to 6.00 | 6.00 to 7.00 | > 7.00 | 5.30 to 6.00 | 5.30 to 6.00 | 6.00 to 7.00
11 | CC(C)(N)CNC(=O)c1ccc(-c2c(F)cnc3[nH]c4cnc(-c5cccnc5)cc4c23)cc1 [Example 26, N-(2-amino-2-methylpropyl)-4-[3-fluoro-6-(pyridin-3-yl)-9H-pyrrolo[2,3-b:5,4-c′]dipyridin-4-yl]benzamide] | > 7.00 |  |  | > 7.00 | 6.00 to 7.00 |  | > 7.00 | 5.30 to 6.00 | 5.30 to 6.00 | 
12 | CN(C)CCCNC(=O)c1ccc(-c2c(F)cnc3[nH]c4cnc(-c5cnn(C)c5)cc4c23)cc1 [Example 38] | > 7.00 | 6.00 to 7.00 | > 7.00 | > 7.00 | 5.30 to 6.00 | 6.00 to 7.00 | > 7.00 | 6.00 to 7.00 |  | 
